One block for each compound: values may come before it.
Legend:
[1] = Half life in Sprague-Dawley rat; format: ADME, organism-based; details: in vivo
[2] = target: T1, Translocator protein (Homo sapiens, UniProt P30536); experiment: Binding affinity to peripheral benzodiazepine receptor at 10 uM
[3] = test system: Rattus norvegicus; experiment: Antinociceptive activity in ip dosed Sprague-Dawley rat assessed as attenuation of mechanical allodynia in chung model of neuropathic pain; format: functional; details: for ED50: Rattus norvegicus, Sprague-Dawley, ip
[4] = target: T2, Sodium channel protein type 10 subunit alpha (Homo sapiens, UniProt Q9Y5Y9); experiment: Activity at human recombinant Nav 1.8 channel expressed in HEK293 cells in inactivated state with prepulse voltage of -40 mV assessed as blockade of TTx-resistant sodium current at 0.03 uM; format: cell-based
[5] = target: Sodium channel protein type 9 subunit alpha (Homo sapiens) (UniProt Q15858); experiment: Inhibition of human Nav1.7 channel at 3 uM
[6] = target: T2, Sodium channel protein type 10 subunit alpha; experiment: Activity at human recombinant Nav 1.8 channel expressed in HEK293 cells in inactivated state with prepulse voltage of -40 mV assessed as blockade of TTx-resistant sodium current at 0.01 uM; format: cell-based
[7] = target: T1, Translocator protein; experiment: Binding affinity to peripheral benzodiazepine receptor
[8] = target: T2, Sodium channel protein type 10 subunit alpha; experiment: Activity at human recombinant Nav 1.8 channel expressed in HEK293 cells in resting state with prepulse voltage of -100 mV assessed as blockade of TTx-resistant sodium current at 0.03 uM; format: cell-based
[9] = target: T3, Nav1.5 (sodium channel protein type 5 subunit alpha) (Homo sapiens, UniProt Q14524); experiment: Inhibition of human Nav1.5 channel at 3 uM
[10] = target: Sodium channel protein type 10 subunit alpha (Mus musculus, UniProt Q6QIY3); experiment: Inhibition of mouse recombinant Nav 1.8 channel expressed in HEK293 cells by isotopic efflux assay; format: cell-based
[11] = target: Sodium channel protein type 9 subunit alpha (Homo sapiens) (UniProt Q15858); experiment: Inhibition of human Nav1.7 channel at 10 uM
[12] = Clearance in Sprague-Dawley rat plasma; format: ADME, organism-based
[13] = target: T3, Nav1.5 (sodium channel protein type 5 subunit alpha); experiment: Inhibition of human Nav1.5 channel at 10 uM
[14] = test system: Rattus norvegicus; experiment: Antinociceptive activity in ip dosed Sprague-Dawley rat assessed as reduction of CFA-induced thermal hyperalgesia; format: functional; parameters: Activity: scale not given: the % may be the effect or the level left; details: for ED50: Rattus norvegicus, Sprague-Dawley, ip
[15] = Intrinsic clearance in Sprague-Dawley rat microsomes after 1 hr; format: ADME, Liver, Microsome
[16] = Volume of distribution at steady state in Sprague-Dawley rat; format: ADME, organism-based; details: in vivo, read-out: Vdss
[17] = Protein binding in Sprague-Dawley rat plasma; format: ADME, cell-free; details: read-out: PPB (converted)
[18] = target: T2, Sodium channel protein type 10 subunit alpha; experiment: Inhibition of human recombinant Nav 1.8 channel expressed in HEK293 cells; format: cell-based
[19] = target: T2, Sodium channel protein type 10 subunit alpha; experiment: Activity at human recombinant Nav 1.8 channel expressed in HEK293 cells in resting state with prepulse voltage of -100 mV assessed as blockade of TTx-resistant sodium current at 0.01 uM; format: cell-based
[20] = Cmax in Sprague-Dawley rat at 10 mg/kg, ip; format: ADME, organism-based; parameters: dose 10 mg/kg, route intraperitoneal; details: in vivo
[21] = Activity at rat dorsal root ganglion in inactivated state with prepulse voltage of -40 mV assessed as blockade of TTx-resistant sodium current at 0.1 uM by whole-cell patch clamp technique; format: functional
[22] = target: T2, Sodium channel protein type 10 subunit alpha; experiment: Inhibition of human recombinant Nav 1.8 channel expressed in HEK293 cells at 0.03 uM; format: cell-based
[23] = Activity at rat dorsal root ganglion in resting state with prepulse voltage of -100 mV assessed as blockade of TTx-resistant sodium current at 0.1 uM by whole-cell patch clamp technique; format: functional
[24] = target: Sodium channel protein type 3 subunit alpha (Homo sapiens) (UniProt Q9NY46); experiment: Inhibition of human Nav1.3 channel at 10 uM
[25] = target: Voltage-gated inwardly rectifying potassium channel KCNH2 (Homo sapiens, UniProt Q12809); experiment: Inhibition of hERG potassium channel expressed in CHO cells by isotope efflux assay
[26] = target: Sodium channel protein type 5 subunit alpha (Homo sapiens, UniProt Q14524); experiment: (§1) Inhibition of human Nav1.5 channel at 1 uM
[27] = target: Sodium channel protein type 2 subunit alpha (Homo sapiens) (UniProt Q99250); experiment: Inhibition of human Nav1.2 channel at 3 uM
[28] = Activity at rat dorsal root ganglion in resting state with prepulse voltage of -100 mV assessed as blockade of TTx-resistant sodium current at 0.3 uM by whole-cell patch clamp technique; format: functional
[29] = Oral bioavailability in Sprague-Dawley rat; format: ADME, organism-based; details: in vivo
[30] = Ratio of drug level in brain to plasma in Sprague-Dawley rat; format: ADME
[31] = target: Sodium channel protein type 3 subunit alpha (Homo sapiens) (UniProt Q9NY46); experiment: Inhibition of human Nav1.3 channel at 3 uM
[32] = Bioavailability in Sprague-Dawley rat at 10 mg/kg, ip; format: ADME, organism-based; details: in vivo
[33] = test system: Rattus norvegicus; experiment: Antinociceptive activity in ip dosed Sprague-Dawley rat assessed as reduction of mechanical allodynia in Bennett model of neuropathic pain; format: functional; parameters: Activity: scale not given: the % may be the effect or the level left; details: for ED50: Rattus norvegicus, Sprague-Dawley, ip
[34] = Activity at rat dorsal root ganglion in inactivated state with prepulse voltage of -40 mV assessed as blockade of TTx-resistant sodium current at 0.3 uM by whole-cell patch clamp technique; format: functional
[35] = target: Sodium channel protein type 2 subunit alpha (Homo sapiens) (UniProt Q99250); experiment: Inhibition of human Nav1.2 channel at 10 uM
[36] = target: T2, Sodium channel protein type 10 subunit alpha; experiment: Inhibition of human recombinant Nav 1.8 channel expressed in HEK293 cells at 0.01 uM; format: cell-based
[37] = target: T2, Sodium channel protein type 10 subunit alpha; experiment: Activity at human recombinant Nav 1.8 channel expressed in HEK293 cells in inactivated state with prepulse voltage of -40 mV assessed as blockade of TTx-resistant sodium current at 0.1 uM; format: cell-based
[38] = target: Sodium channel protein type 2 subunit alpha (Homo sapiens) (UniProt Q99250); experiment: Inhibition of human Nav1.2 channel at 1 uM
[39] = target: T2, Sodium channel protein type 10 subunit alpha; experiment: Activity at human recombinant Nav 1.8 channel expressed in HEK293 cells in inactivated state with prepulse voltage of -40 mV assessed as blockade of TTx-resistant sodium current at 1 uM; format: cell-based
[40] = Oral bioavailability in Sprague-Dawley rat at 10 mg/kg; format: ADME, organism-based; details: in vivo
[41] = Aqueous solubility of the compound; format: physicochemical
[42] = Activity at rat dorsal root ganglion in inactivated state with prepulse voltage of -40 mV assessed as blockade of TTx-resistant sodium current at 1 uM by whole-cell patch clamp technique; format: functional
[43] = target: T3, Nav1.5 (sodium channel protein type 5 subunit alpha); experiment: as §1; details: human
[44] = target: T2, Sodium channel protein type 10 subunit alpha; experiment: Inhibition of human recombinant Nav 1.8 channel expressed in HEK293 cells at 0.1 uM; format: cell-based
[45] = Activity at rat dorsal root ganglion in resting state with prepulse voltage of -100 mV assessed as blockade of TTx-resistant sodium current at 1 uM by whole-cell patch clamp technique; format: functional
[46] = target: T2, Sodium channel protein type 10 subunit alpha; experiment: Activity at human recombinant Nav 1.8 channel expressed in HEK293 cells in resting state with prepulse voltage of -100 mV assessed as blockade of TTx-resistant sodium current at 0.1 uM; format: cell-based
[47] = target: T2, Sodium channel protein type 10 subunit alpha; experiment: Inhibition of human recombinant Nav 1.8 channel expressed in HEK293 cells at 1 uM; format: cell-based
[48] = target: Sodium channel protein type 3 subunit alpha (Homo sapiens) (UniProt Q9NY46); experiment: Inhibition of human Nav1.3 channel at 1 uM
[49] = target: T2, Sodium channel protein type 10 subunit alpha; experiment: Activity at human recombinant Nav 1.8 channel expressed in HEK293 cells in resting state with prepulse voltage of -100 mV assessed as blockade of TTx-resistant sodium current at 1 uM; format: cell-based
[50] = target: T4, D(1A) dopamine receptor (Homo sapiens, UniProt P21728); details: 10 uM
[51] = target: T5, Cholecystokinin receptor type A (Homo sapiens, UniProt P32238); experiment: Binding affinity to CCKAR
T5 sequence (P32238 whole entry): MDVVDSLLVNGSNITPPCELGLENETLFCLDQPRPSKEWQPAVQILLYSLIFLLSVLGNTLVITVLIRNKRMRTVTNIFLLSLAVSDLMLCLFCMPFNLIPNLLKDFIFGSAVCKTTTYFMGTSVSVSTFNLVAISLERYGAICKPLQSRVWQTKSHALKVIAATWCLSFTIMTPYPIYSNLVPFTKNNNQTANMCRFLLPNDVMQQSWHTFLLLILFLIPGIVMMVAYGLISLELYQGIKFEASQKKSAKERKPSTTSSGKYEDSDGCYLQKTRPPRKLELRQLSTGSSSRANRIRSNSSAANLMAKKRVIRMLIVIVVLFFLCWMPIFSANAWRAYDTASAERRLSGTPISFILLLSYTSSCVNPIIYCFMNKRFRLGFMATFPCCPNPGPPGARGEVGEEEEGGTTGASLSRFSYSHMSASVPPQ

[52] = target: T2, Sodium channel protein type 10 subunit alpha; experiment: Activity at human recombinant Nav 1.8 channel expressed in HEK293 cells in inactivated state with prepulse voltage of -40 mV assessed as blockade of TTx-resistant sodium current at 0.003 uM; format: cell-based
[53] = target: T2, Sodium channel protein type 10 subunit alpha; experiment: Activity at human recombinant Nav 1.8 channel expressed in HEK293 cells in resting state with prepulse voltage of -100 mV assessed as blockade of TTx-resistant sodium current at 0.003 uM; format: cell-based
[54] = target: T4, D(1A) dopamine receptor; experiment: Binding affinity to dopamine D1 receptor
[55] = target: T6, 5-hydroxytryptamine receptor 2A (Homo sapiens, UniProt P28223); experiment: Binding affinity to 5HT2A receptor
[56] = Binding affinity to melatonin receptor 1
[57] = target: T6, 5-hydroxytryptamine receptor 2A; details: 10 uM
[58] = target: T2, Sodium channel protein type 10 subunit alpha; experiment: Inhibition of human recombinant Nav 1.8 channel expressed in HEK293 cells at 0.003 uM; format: cell-based
[59] = target: T7, Cholecystokinin receptor type A (Homo sapiens) (UniProt P32238); details: 10 uM
T7 sequence (whole entry): T5 sequence (P32238 whole entry)

Sequence of Sodium channel protein type 10 subunit alpha (Mus musculus, UniProt Q6QIY3) (Q6QIY3 whole entry): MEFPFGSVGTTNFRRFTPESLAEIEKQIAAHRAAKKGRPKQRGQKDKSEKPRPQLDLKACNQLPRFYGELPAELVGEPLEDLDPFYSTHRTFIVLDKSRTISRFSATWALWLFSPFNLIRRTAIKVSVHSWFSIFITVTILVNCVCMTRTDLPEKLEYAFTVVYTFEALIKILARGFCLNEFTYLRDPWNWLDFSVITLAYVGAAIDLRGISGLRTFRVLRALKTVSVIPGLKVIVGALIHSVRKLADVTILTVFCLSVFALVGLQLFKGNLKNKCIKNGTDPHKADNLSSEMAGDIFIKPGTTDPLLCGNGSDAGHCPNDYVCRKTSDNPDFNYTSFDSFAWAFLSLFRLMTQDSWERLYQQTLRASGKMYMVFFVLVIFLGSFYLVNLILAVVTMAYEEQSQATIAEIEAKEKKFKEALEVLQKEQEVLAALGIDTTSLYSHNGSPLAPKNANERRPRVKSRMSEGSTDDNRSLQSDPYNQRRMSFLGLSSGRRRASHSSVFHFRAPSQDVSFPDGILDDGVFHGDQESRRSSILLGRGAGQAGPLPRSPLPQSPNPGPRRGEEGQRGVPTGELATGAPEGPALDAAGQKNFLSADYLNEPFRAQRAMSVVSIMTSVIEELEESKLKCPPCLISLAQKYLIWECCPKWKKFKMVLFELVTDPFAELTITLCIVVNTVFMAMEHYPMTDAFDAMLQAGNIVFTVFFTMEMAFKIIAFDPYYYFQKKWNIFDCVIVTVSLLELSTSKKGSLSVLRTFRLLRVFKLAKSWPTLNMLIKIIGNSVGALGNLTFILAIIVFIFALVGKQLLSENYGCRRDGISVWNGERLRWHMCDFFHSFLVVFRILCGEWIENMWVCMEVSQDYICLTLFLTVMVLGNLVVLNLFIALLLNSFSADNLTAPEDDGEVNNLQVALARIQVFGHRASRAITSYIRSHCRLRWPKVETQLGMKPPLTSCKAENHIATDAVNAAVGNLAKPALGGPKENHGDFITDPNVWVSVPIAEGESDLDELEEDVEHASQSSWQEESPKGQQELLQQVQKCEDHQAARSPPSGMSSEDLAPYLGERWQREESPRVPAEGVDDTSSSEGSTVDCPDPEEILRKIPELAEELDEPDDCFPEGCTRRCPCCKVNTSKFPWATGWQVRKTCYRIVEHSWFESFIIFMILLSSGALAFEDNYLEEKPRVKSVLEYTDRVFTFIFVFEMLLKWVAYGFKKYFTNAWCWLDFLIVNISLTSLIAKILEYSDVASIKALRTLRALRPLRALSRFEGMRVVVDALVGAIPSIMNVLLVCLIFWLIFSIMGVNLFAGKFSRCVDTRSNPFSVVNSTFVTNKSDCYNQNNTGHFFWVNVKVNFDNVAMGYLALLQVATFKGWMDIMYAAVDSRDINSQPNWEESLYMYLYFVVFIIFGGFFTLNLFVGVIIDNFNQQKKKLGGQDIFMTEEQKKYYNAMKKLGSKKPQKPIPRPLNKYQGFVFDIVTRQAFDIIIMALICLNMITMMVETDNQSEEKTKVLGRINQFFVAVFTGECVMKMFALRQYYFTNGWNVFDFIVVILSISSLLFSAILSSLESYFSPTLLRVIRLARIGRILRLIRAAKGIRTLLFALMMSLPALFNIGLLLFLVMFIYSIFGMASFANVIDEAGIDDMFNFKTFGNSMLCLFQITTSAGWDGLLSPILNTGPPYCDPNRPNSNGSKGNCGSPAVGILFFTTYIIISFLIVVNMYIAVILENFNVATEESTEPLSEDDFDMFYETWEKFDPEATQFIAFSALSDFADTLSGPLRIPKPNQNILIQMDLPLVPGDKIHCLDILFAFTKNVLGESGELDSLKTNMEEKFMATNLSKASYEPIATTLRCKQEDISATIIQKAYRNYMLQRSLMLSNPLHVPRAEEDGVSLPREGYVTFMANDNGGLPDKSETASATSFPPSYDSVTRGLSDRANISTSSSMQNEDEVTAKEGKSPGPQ
T3 sequence (Q14524 whole entry): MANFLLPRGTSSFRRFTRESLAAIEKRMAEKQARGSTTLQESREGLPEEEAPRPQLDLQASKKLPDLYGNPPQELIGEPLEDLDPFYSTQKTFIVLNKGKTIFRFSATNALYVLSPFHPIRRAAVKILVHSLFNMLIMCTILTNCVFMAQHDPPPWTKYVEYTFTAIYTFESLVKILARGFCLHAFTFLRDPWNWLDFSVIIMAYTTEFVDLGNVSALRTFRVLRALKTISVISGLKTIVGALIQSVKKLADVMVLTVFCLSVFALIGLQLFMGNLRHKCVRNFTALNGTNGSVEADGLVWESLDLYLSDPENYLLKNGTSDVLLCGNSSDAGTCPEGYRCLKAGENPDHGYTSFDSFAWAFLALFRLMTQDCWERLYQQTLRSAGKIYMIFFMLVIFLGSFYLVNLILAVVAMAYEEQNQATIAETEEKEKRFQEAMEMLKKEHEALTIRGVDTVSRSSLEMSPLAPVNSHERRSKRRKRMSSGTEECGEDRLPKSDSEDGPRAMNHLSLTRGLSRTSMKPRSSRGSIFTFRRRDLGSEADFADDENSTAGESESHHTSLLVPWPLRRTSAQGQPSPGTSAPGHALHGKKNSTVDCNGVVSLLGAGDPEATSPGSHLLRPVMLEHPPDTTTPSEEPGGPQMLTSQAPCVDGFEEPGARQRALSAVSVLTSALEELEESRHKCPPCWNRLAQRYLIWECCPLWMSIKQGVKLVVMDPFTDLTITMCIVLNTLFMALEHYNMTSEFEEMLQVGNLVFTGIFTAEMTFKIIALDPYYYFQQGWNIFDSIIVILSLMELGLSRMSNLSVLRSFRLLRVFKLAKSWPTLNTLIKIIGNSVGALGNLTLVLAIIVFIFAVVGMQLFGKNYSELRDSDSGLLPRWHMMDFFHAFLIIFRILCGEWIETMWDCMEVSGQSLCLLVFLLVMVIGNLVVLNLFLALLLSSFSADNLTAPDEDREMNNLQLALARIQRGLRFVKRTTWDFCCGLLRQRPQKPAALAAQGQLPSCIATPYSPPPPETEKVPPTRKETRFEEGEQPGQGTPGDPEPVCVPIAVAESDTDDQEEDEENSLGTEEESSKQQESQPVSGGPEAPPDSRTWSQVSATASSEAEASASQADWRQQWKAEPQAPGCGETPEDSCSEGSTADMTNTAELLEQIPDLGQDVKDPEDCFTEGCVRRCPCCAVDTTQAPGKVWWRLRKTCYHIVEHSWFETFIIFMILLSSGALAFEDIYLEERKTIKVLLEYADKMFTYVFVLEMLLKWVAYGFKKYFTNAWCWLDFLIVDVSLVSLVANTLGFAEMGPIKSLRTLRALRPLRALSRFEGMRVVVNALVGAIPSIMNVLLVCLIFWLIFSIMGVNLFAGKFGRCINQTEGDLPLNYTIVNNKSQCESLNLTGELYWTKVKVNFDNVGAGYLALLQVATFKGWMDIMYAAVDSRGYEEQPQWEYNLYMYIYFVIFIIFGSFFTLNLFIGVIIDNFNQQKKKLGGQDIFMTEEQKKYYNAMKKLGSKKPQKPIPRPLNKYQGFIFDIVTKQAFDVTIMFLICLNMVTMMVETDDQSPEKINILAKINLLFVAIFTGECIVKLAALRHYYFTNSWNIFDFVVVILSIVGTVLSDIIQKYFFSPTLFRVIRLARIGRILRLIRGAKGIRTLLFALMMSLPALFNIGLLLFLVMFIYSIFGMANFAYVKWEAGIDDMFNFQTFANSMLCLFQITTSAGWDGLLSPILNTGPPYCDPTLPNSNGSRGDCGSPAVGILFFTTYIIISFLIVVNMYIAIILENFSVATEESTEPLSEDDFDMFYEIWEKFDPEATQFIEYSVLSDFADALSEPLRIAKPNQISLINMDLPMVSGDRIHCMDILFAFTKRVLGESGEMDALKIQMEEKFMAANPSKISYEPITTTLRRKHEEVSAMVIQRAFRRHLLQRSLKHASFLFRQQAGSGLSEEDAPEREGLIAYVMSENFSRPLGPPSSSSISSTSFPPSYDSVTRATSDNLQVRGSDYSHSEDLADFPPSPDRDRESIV
T1 sequence (P30536 whole entry): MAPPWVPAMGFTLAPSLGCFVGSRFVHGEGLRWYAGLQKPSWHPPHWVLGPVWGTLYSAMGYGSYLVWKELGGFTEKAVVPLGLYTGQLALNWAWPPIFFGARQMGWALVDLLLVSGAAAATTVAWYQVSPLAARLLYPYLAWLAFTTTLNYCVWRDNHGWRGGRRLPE
T6 sequence (P28223 whole entry): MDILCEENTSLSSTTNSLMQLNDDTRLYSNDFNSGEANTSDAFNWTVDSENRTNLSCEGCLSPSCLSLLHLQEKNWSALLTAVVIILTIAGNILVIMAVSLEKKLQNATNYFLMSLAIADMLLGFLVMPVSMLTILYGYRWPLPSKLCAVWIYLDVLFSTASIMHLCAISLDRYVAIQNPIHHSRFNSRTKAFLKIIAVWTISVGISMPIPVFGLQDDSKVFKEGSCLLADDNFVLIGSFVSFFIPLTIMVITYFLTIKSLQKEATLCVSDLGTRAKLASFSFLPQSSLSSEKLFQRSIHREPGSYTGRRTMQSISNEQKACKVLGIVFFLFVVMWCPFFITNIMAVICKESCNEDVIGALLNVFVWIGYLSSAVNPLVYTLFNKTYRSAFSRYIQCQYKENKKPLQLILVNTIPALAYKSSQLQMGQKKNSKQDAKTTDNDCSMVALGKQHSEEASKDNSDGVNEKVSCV
T4 sequence (P21728 whole entry): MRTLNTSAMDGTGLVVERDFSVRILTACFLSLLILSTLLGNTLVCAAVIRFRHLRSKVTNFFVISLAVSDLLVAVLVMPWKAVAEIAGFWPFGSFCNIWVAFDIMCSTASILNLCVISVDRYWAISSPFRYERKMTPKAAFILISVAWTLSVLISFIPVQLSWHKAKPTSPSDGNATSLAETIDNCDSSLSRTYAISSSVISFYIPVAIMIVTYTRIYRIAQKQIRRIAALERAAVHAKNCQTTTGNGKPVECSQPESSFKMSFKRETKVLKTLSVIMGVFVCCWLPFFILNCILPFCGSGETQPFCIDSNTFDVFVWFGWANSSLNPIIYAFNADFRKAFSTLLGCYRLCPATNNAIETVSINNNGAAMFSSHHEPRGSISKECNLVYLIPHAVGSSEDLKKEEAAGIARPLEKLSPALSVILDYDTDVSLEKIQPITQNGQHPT

half-life [1]: 1.9 h
inhibition [2]: > 60%
inhibition [4]: 51%
inhibition [5]: 26%
inhibition [6]: 33%
IC50 [7]: > 2 µM
inhibition [8]: 29%
IC50 [10]: 0.48 µM
inhibition [11]: 54%
clearance [12]: 40 mL/min/kg
microsomal CLint [15]: 260 µL/min/mg
Vd [16]: 1.9 L/kg
fraction unbound [17]: 0.017
IC50 [18]: 0.079 µM
inhibition [19]: 14%
Cmax [20]: 750 ng/mL
inhibition [22]: 51%
inhibition [24]: 58%
inhibition [27]: 32%
bioavailability [29]: 4%
Kp [30]: 0.35
inhibition [31]: 47%
bioavailability [32]: 36%
inhibition [35]: 57%
inhibition [36]: 33%
SMILES: Cc1cccc(NC(=O)c2ccc(-c3ccc(C#N)cc3)o2)c1
Activity [3]: 86%
ED50 [3]: 38 mg/kg
inhibition at 3 µM [9]: 61%
inhibition at 10 µM [13]: 74%
Activity [14]: 55%
ED50 [14]: 98 mg/kg
inhibition at 0.1 µM [21]: 41%
inhibition at 0.1 µM [23]: 38%
IC50 [25]: 5.8 µM
IC50 [26]: > 2 µM
inhibition at 0.3 µM [28]: 52%
Activity [33]: 21%
ED50 [33]: > 100 mg/kg
inhibition at 0.3 µM [34]: 74%

inhibition [37]: 46%
inhibition [38]: 52%
IC50 [10]: 1.9 µM
microsomal CLint [15]: 220 µL/min/mg
inhibition [39]: 75%
bioavailability [40]: 67%
solubility [41]: 250 µg/mL
inhibition [44]: 46%
inhibition [46]: 1%
inhibition [47]: 75%
inhibition [48]: 36%
inhibition [49]: 5%
SMILES: Cc1cccc(NC(=N)c2ccc(-c3ccc(Cl)cc3)o2)c1.Cl
IC50 [25]: 2.1 µM
inhibition at 1 µM [42]: 60%
inhibition at 1 µM [43]: 56%
inhibition at 0.3 µM [28]: 2%
inhibition at 1 µM [45]: 10%
inhibition at 0.3 µM [34]: 45%

SMILES: COc1cc(NC(=O)c2ccc(-c3ccc(Cl)cc3)o2)cc(OC)c1
half-life [1]: 7.3 h
inhibition [2]: > 60%
Activity [3]: 70%
ED50 [3]: 47 mg/kg
inhibition [5]: 42%
inhibition [6]: 59%
IC50 [7]: > 2 µM
inhibition at 3 µM [9]: 44%
IC50 [10]: 0.85 µM
inhibition [11]: 54%
inhibition [50]: > 60%
inhibition at 10 µM [13]: 49%
Activity [14]: 64%
ED50 [14]: 41 mg/kg
IC50 [51]: > 2 µM
inhibition [52]: 30%
microsomal CLint [15]: 140 µL/min/mg
Vd [16]: 6.4 L/kg
inhibition [53]: 5%
inhibition [19]: 19%
inhibition at 0.1 µM [21]: 48%
IC50 [54]: > 2 µM
IC50 [55]: > 2 µM
IC50 [56]: > 2 µM
inhibition [57]: > 60%
inhibition at 0.1 µM [23]: 14%
inhibition [24]: 70%
inhibition [58]: 30%
IC50 [26]: > 2 µM
inhibition [27]: 41%
inhibition at 0.3 µM [28]: 48%
Kp [30]: 1.1
inhibition [31]: 52%
Activity [33]: 56%
ED50 [33]: 85 mg/kg
inhibition at 0.3 µM [34]: 71%
inhibition [35]: 53%
inhibition [59]: > 60%
inhibition [36]: 59%
